Read-outs that look alike come from different tables or passages of the source.
Experiments:
PD-1/PD-L1 = PD-1/PD-L1 (Homo sapiens (Human), UniProt Q9NZQ7); assay: PD-1/PD-L1 biochemical protein-protein interaction assay (ALPHA); type: binding; settings: read-out: IC50 PD-L1-PD1
PD-L1 = PD-L1 (Homo sapiens (Human), UniProt Q9NZQ7); assay: PD-L1/PD-L1 dimerization biochemical protein-protein interaction assay (ALPHA); type: binding; settings: read-out: AC50 PDL1 Dimer 1 nM
FFA1 (h) (GRP40) = FFA1 (h) (GRP40) (Homo sapiens (Human), UniProt O14842); assay: GPR40 functional assay, agonist effect (intracellular Ca2+, fluorimetry); type: cell-based; settings: HEK293, human recombinant GPR40 in HEK-293 cells, control 100 μM linoleic acid
Description: (§1) Select compounds were tested in a functional GRP40 assay as described in Briscoe, C. P. et al. (Brit. J. Pharmacol., (2006), 148: 619-628) to determine agonist/antagonist activity. […] Using a HEK-293 cell line transiently transduced to express GPR40, the agonist/antagonist activity of select compounds has been assessed.

FFA1 (h) (GPR40) = FFA1 (h) (GPR40) (Homo sapiens (Human), UniProt O14842); assay: GPR40 functional assay, antagonist effect (intracellular Ca2+, fluorimetry); type: cell-based; settings: stimulus linoleic acid 20000 nM; for inhibition at 10 µM: HEK293, human recombinant GPR40 in HEK-293 cells
Description: as §1

[1] = 0.3 nM His tagged PD-L1, 2.5 nM biotinylated Fc-PD-1, Table 3B
[2] = 0.5 nM His tagged PD-L1 and 0.5 nM FLAG tagged PD-L1, Table 4B
[3] = 1st replicate, read-out: % of control agonist response, 1st
[4] = 2nd replicate, read-out: % of control agonist response, 2nd
[5] = mean, read-out: % of control agonist response, Mean
[6] = 1st replicate, read-out: % inhibition of control agonist response, 1st
[7] = 2nd replicate, read-out: % inhibition of control agonist response, 2nd
[8] = mean, read-out: % inhibition of control agonist response, Mean
[9] = 0.3 nM His tagged PD-L1, 2.5 nM biotinylated Fc-PD-1, readings of 0.064 nM are equal to or less than 0.064 nM
[10] = 0.5 nM His tagged PD-L1 and 0.5 nM FLAG tagged PD-L1, Table 4A

Chain of FFA1 (h) (GPR40) (O14842 whole entry): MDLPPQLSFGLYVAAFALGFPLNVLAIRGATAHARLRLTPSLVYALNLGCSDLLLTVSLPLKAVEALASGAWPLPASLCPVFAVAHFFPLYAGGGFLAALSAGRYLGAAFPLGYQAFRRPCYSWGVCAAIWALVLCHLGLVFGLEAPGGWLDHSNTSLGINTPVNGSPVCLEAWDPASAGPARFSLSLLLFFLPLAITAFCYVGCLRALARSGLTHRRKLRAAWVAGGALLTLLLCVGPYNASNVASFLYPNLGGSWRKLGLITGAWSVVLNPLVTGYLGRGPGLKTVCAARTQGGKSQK
Chain of FFA1 (h) (GRP40) (O14842 whole entry): as above
Chain of PD-1/PD-L1 (Q9NZQ7 19-238): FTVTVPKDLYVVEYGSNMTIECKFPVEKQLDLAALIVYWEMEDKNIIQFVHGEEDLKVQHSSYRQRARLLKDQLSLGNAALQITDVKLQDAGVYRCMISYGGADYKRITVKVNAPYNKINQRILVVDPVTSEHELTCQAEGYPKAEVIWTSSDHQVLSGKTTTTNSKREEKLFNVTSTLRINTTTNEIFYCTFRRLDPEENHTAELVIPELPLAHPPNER
Chain of PD-L1 (Q9NZQ7 19-238): as above
Chain of PD-L1 (Q9NZQ7 19-238): as above

Row | Compound | IC50 (PD-1/PD-L1; [1]) [nM] | AC50 (PD-L1; [2]) [nM] | IC50 (PD-1/PD-L1; [9]) [nM] | AC50 (PD-L1; [10]) [nM] | other results
1 | COc1nc(-c2cccc(-c3cccc4c3CC[C@@H]4Nc3nc(OC)c(CNC4(C(=O)O)CC4)cc3C(F)(F)F)c2Cl)ccc1CNC[C@@H]1CCC(=O)N1 [A-41] |  |  | ≤ 0.064 | 7.6 | activity at 10 µM (FFA1 (h) (GRP40); [3]): 1.1%; activity at 10 µM (FFA1 (h) (GRP40); [4]): 0.1%; activity at 10 µM (FFA1 (h) (GRP40); [5]): 0.6%; inhibition at 10 µM (FFA1 (h) (GPR40); [6]): 23.1%; inhibition at 10 µM (FFA1 (h) (GPR40); [7]): 13.1%; inhibition at 10 µM (FFA1 (h) (GPR40); [8]): 18.1%
2 | COc1nc(-c2cccc(-c3cccc4c3CC[C@@H]4Nc3nc(OC)c(CN4CC5(C(=O)O)CCC4CC5)nc3C(F)(F)F)c2Cl)ccc1CNC[C@@H]1CCC(=O)N1 [A-18, 2-((5-(((S)-4-(2-chloro-3-(6-methoxy-5-(((((S)-5-oxopyrrolidin-2-yl)methyl)amino)methyl)pyridin-2-yl)phenyl)-2,3-dihydro-1H-inden-1-yl)amino)-3-methoxy-6-(trifluoromethyl)pyrazin-2-yl)methyl)-2-azabicyclo[2.2.2]octane-4-carboxylic acid] |  |  | ≤ 0.064 | 15.7 | activity at 10 µM (FFA1 (h) (GRP40); [3]): -0.6%; activity at 10 µM (FFA1 (h) (GRP40); [4]): -1.9%; activity at 10 µM (FFA1 (h) (GRP40); [5]): -1.3%; % inhibition of control agonist response, 1st (FFA1 (h) (GPR40); 10 μM, human recombinant GPR40 in HEK-293 cells, 1st replicate): 8.3%; % inhibition of control agonist response, 2nd (FFA1 (h) (GPR40); 10 μM, human recombinant GPR40 in HEK-293 cells, 2nd replicate): 17.4%; % inhibition of control agonist response, Mean (FFA1 (h) (GPR40); 10 μM, human recombinant GPR40 in HEK-293 cells, mean): 12.8%
3 | COc1nc(-c2cccc(-c3cccc4c3CC[C@@H]4Nc3nc(OC)c(CN[C@H](C(=O)O)C4CC4)nc3C(F)(F)F)c2Cl)ccc1CNC[C@@H]1CCC(=O)N1 [A-101] |  |  | ≤ 0.064 | 3.9 | 
4 | COc1nc(-c2cccc(-c3cccc4c3CC[C@@H]4Nc3nc(OC)c(CN4CCC[C@@]4(C)C(=O)O)cc3C(F)(F)F)c2Cl)ccc1CNC[C@@H]1CCC(=O)N1 [A-39] |  |  | ≤ 0.064 | 17.8 | 
5 | COc1nc(-c2cccc(-c3cccc4c3CC[C@@H]4Nc3nc(OC)c(CN[C@@H](C)C(=O)O)nc3C(F)(F)F)c2Cl)ccc1CNC[C@@H]1CCC(=O)N1 [A-106] |  |  | ≤ 0.064 | 5.04 | 
6 | COc1cc(N[C@H]2CCc3c(-c4cccc(-c5ccc(CNC[C@@H]6CCC(=O)N6)c(OC)n5)c4Cl)cccc32)c(Cl)cc1CN1CC[C@@](C)(C(=O)O)C1 [A-14, (R)-1-(5-chloro-4-(((S)-4-(2-chloro-3-(6-methoxy-5-(((((S)-5-oxopyrrolidin-2-yl)methyl)amino)methyl)pyridin-2-yl)phenyl)-2,3-dihydro-1H-inden-1-yl)amino)-2-methoxybenzyl)-3-methylpyrrolidine-3-carboxylic acid] |  |  | ≤ 0.064 | 30.4 | 
7 | CNC(=O)CNCc1nc(C(F)(F)F)c(N[C@H]2CCc3c(-c4cccc(-c5ccc(CNC[C@@H]6CCC(=O)N6)c(OC)n5)c4Cl)cccc32)nc1OC [A-88] |  |  | 0.202 | 60.4 | 
8 | COc1nc(-c2cccc(-c3cccc4c3CC[C@@H]4Nc3nc(OC)c(CN[C@H](C(=O)O)C(C)C)nc3C(F)(F)F)c2Cl)ccc1CNC[C@@H]1CCC(=O)N1 [A-105] |  |  | ≤ 0.064 | 40.6 | 
9 | COc1cc(N[C@H]2CCc3c(-c4cccc(-c5ccc(CNC[C@@H]6CCC(=O)N6)c(OC)n5)c4Cl)cccc32)c(C(F)(F)F)cc1CN1CC[C@H](C(=O)O)C1 [A-10] |  |  | ≤ 0.064 | 16.7 | 
10 | COc1cc(-c2cccc(-c3cccc4c3CC[C@@H]4Nc3nc(OC)c(CN4CC[C@@H](C(=O)O)C4)cc3C(F)(F)F)c2Cl)ccc1CNC[C@@H]1CCC(=O)N1 [A-36] |  |  | ≤ 0.064 | 2.05 | 
11 | COc1nc(-c2cccc(-c3cccc4c3CC[C@@H]4Oc3nc(OC)c(CN4CC[C@@H](C(=O)O)C4)cc3C(F)(F)F)c2Cl)ccc1CN[C@H]1C[C@](C)(O)C1 [B-2] | 0.064 | 17.5 |  |  | 
12 | COC[C@H](NCc1cc(C(F)(F)F)c(N[C@H]2CCc3c(-c4cccc(-c5ccc(CN[C@H]6C[C@](C)(O)C6)c(OC)n5)c4Cl)cccc32)nc1OC)C(=O)O [A-91] |  |  | ≤ 0.064 | 42.7 | 
13 | CCC1C(C(=O)O)CCN1Cc1nc(C(F)(F)F)c(N[C@H]2CCc3c(-c4cccc(-c5ccc(CNC[C@@H]6CCC(=O)N6)c(OC)n5)c4Cl)cccc32)nc1OC (some centres unmarked) [A-77] |  |  | ≤ 0.064 | 26.6 | 
14 | COc1cc(-c2cccc(-c3cccc4c3CC[C@@H]4Nc3nc(OC)c(CN4CC5(C(=O)O)CCC4CC5)nc3C(F)(F)F)c2Cl)cc(F)c1CNC[C@@H]1CCC(=O)N1 [A-33] |  |  | ≤ 0.064 | 11.7 | 

Continued, in another order:

Row | IC50 (PD-1/PD-L1; [1]) [nM] | AC50 (PD-L1; [2]) [nM] | IC50 (PD-1/PD-L1; [9]) [nM] | AC50 (PD-L1; [10]) [nM] | Compound | other results
15 | 0.064 | 3.77 |  |  | COc1nc(-c2cccc(-c3cccc4c3CC[C@@H]4Oc3nc(OC)c(CNC4(C(=O)O)CC4)cc3C(F)(F)F)c2Cl)ccc1CNC[C@@H]1CCC(=O)N1 [B-36] | activity at 10 µM (FFA1 (h) (GRP40); [3]): -0.4%; activity at 10 µM (FFA1 (h) (GRP40); [4]): -0.5%; activity at 10 µM (FFA1 (h) (GRP40); [5]): -0.4%; inhibition at 10 µM (FFA1 (h) (GPR40); [6]): 30.5%; inhibition at 10 µM (FFA1 (h) (GPR40); [7]): 17%; inhibition at 10 µM (FFA1 (h) (GPR40); [8]): 23.7%
16 | 0.064 | 4.04 |  |  | COc1nc(-c2cccc(-c3cccc4c3CC[C@@H]4Oc3nc(OC)c(CN4CC[C@H](C)[C@H]4C(=O)O)cc3C(F)(F)F)c2Cl)ccc1CNC[C@@H]1CCC(=O)N1 [B-7] | 
17 | 0.064 | 20.7 |  |  | COc1nc(-c2cccc(-c3cccc4c3CC[C@@H]4Oc3nc(OC)c(CN4CC[C@H](C(=O)O)C4)cc3Cl)c2Cl)ccc1CNC[C@@H]1CCC(=O)N1 [B-114] | 
18 | 0.084 | 78.5 |  |  | COc1nc(O[C@H]2CCc3c(-c4cccc(-c5cc(C)c(CN6C[C@@H]7[C@H](C6)[C@H]7C(=O)O)c(OC)n5)c4Cl)cccc32)c(Cl)cc1CNC[C@@H]1CCC(=O)N1 [B-124] | 
19 | 0.064 | 27.5 |  |  | COc1nc(-c2cccc(-c3cccc4c3CC[C@@H]4Oc3nc(OC)c(CN[C@]4(C(=O)O)C[C@H](F)C4)cc3C(F)(F)F)c2Cl)ccc1CNC[C@@H]1CCC(=O)N1 [B-230] | 
20 | 0.064 | 17.5 |  |  | COc1nc(-c2cccc(-c3cccc4c3CC[C@@H]4Oc3nc(OC)c(CN4C[C@@H]5C[C@]5(C(=O)O)C4)cc3C(F)(F)F)c2Cl)ccc1CNC[C@@H]1CCC(=O)N1 [B-199] | 
21 | 0.079 | 14.2 |  |  | COc1nc(-c2cccc(-c3cccc4c3CC[C@@H]4Oc3nc(OC)c(CN[C@@H](C)C(N)=O)cc3C(F)(F)F)c2Cl)ccc1CNC[C@@H]1CCC(=O)N1 [B-265] | 
22 | 0.064 | 35.7 |  |  | COc1nc(-c2cccc(-c3cccc4c3CC[C@@H]4Oc3nc(OC)c(CN4CC(C(=O)O)C5(CCC5)C4)cc3Cl)c2Cl)ccc1CNC[C@@H]1CCC(=O)N1 (some centres unmarked) [B-71] | 
23 | 0.064 | 24.4 |  |  | COc1nc(-c2cccc(-c3cccc4c3CC[C@@H]4Oc3nc(OC4CC4)c(CNC4(C(=O)O)CC4)cc3Cl)c2Cl)ccc1CNC[C@@H]1CCC(=O)N1 [B-201] | 
24 | 0.064 | 2.28 |  |  | COc1cc(-c2cccc(-c3cccc4c3CC[C@@H]4Oc3nc(OC)c(CN4CC5(C(=O)O)CCC4CC5)cc3C(F)(F)F)c2Cl)ccc1CNC[C@@H]1CCC(=O)N1 [B-140] | 
25 | 0.064 | 26.3 |  |  | COc1nc(-c2cccc(-c3cccc4c3CC[C@@H]4Oc3nc(OC)c(CN4CCC(C(=O)O)CC4)cc3Cl)c2Cl)ccc1CNC[C@@H]1CCC(=O)N1 [B-115] | 
26 | 0.064 | 14.3 |  |  | COc1nc(-c2cccc(-c3cccc4c3CC[C@@H]4Oc3nc(OC)c(CN4C[C@@H](C)[C@H]4C(=O)O)cc3Cl)c2Cl)ccc1CNC[C@@H]1CCC(=O)N1 [B-175] | 
27 | 0.064 | 7.12 |  |  | COc1nc(-c2cccc(-c3cccc4c3CC[C@@H]4Oc3nc(OCc4cncc(Cl)c4)c(CN4CC5(C(=O)O)CCC4CC5)cc3Cl)c2Cl)ccc1CNC[C@@H]1CCC(=O)N1 [B-48] | 
28 | 0.076 | 4.63 |  |  | COc1nc(-c2cccc(-c3cccc4c3CC[C@@H]4Oc3nc(OC)c(CNC[C@H]4C[C@](C)(O)C4)cc3C(F)(F)F)c2Cl)ccc1CNC[C@@H]1CCC(=O)N1 [B-261] | 
29 | 0.064 | 5.94 |  |  | COc1nc(-c2cccc(-c3cccc4c3CC[C@@H]4Oc3nc(OC)c(CNC(C)(C)C(=O)O)cc3C)c2Cl)ccc1CNC[C@@H]1CCC(=O)N1 [B-245] | 
30 | 0.064 | 16.5 |  |  | COc1cc(-c2cccc(-c3cccc4c3CC[C@@H]4Oc3nc(OC)c(CN4CC5(C(=O)O)CCC4CC5)cc3Cl)c2Cl)cc(F)c1CNC[C@@H]1CCC(=O)N1 [B-129] | 
31 | 0.064 | 48.7 |  |  | COc1nc(O[C@H]2CCc3c(-c4cccc(-c5cnc(CNC[C@@H]6CCC(=O)N6)cn5)c4Cl)cccc32)c(Cl)cc1CN1CC(C(=O)O)C1 [B-96] | 
